From ChEMBL document CHEMBL5370527, “Hit-to-lead optimization of a pyrazinylpiperazine series against Leishmania infantum and Leishmania braziliensis” (Eur J Med Chem, 2023) come the findings set out here.

Data set [1] is described as follows: Cytotoxicity against human THP-1 cells assessed as reduction in cell viability incubated for 72 hrs by alamarblue staining based analysis. The class given is toxicity. In general terms: Alamar Blue is a resazurin reagent that responds to reducing activity.
The next data set concerns Leishmania infantum. Put plainly: Antileishmanial activity against […] stage of Leishmania infantum MHOM/BR/1974/PP75 infected in human THP-1 cells assessed as parasite growth inhibition incubated for 72 hrs by microplate reader analysis. The class given is functional, organism-based. As to conditions: MHOM/BR/1974/PP75, THP-1, 72 h.
Data set [2] in a line: Selectivity index, ratio of CC50 for cytotoxicity against human THP-1 cells assessed as reduction in cell viability to IC50 for antileishmanial activity against […] stage of Leishmania infantum MHOM/BR/1974/PP75 infected in human THP-1 cells assessed as parasite growth inhibition. As to conditions: read-out: Ratio CC50/IC50. The class given is toxicity, cell-based.

Data set [3] can be described thus: Selectivity index, ratio of CC50 for cytotoxicity against human THP-1 cells assessed as reduction in cell viability to IC50 for antileishmanial activity against […] stage of Leishmania braziliensis MHOM/BR/75/M2904 infected in human THP-1 cells assessed as parasite growth inhibition. Format: toxicity, cell-based. The conditions noted are these: read-out: Ratio CC50/IC50.

The test system of the next data set is Leishmania braziliensis. Put plainly: Antileishmanial activity against […] stage of Leishmania braziliensis MHOM/BR/75/M2904 infected in human THP-1 cells assessed as parasite growth inhibition incubated for 72 hrs by microplate reader analysis. The conditions noted are these: MHOM/BR/75/M2904, THP-1, 72 h. The class given is functional, organism-based.

Some results are limits rather than exact numbers.

In the case of `O=C(c1ccc(N2CCCC2)nc1)N1CCN(c2cnccn2)CC1`, the CC50 (usually the concentration at which the toxic effect on the cells reaches its halfway point) at 72 h in data set [1] was found to be 280 µM. Also, the IC50 (commonly the point on the concentration scale where inhibition reaches its midpoint) with Leishmania infantum was determined as 5.3 µM; in the data set on Leishmania braziliensis, 5.9 µM. The selectivity ratio in data set [2] amounted to 53; in data set [3], 48.

As for `C[C@@H]1[C@H](O)[C@@H](C)/C=C/C=C/C=C/C=C/C=C/C=C/C=C/[C@H](O[C@@H]2O[C@H](C)[C@@H](O)[C@H](N)[C@@H]2O)C[C@@H]2O[C@](O)(C[C@@H](O)C[C@@H](O)[C@H](O)CC[C@@H](O)C[C@@H](O)CC(=O)O[C@H]1C)C[C@H](O)[C@H]2C(=O)O` [AMPHOTERICIN B], in data set [1], the CC50 at 72 h amounted to 364 µM. For the same molecule, the results for the concentration for half-maximal inhibition (IC50) in the data set with Leishmania infantum and in the data set with Leishmania braziliensis were 0.25 µM and 0.13 µM, respectively. Besides, the selectivity ratio in data set [2] was found to be 1460; in data set [3], 2800.

Turning to `O=C(c1ccc(O)c(O)c1)N1CCN(c2cnccn2)CC1`, the CC50 at 72 h in data set [1] amounted to 1420 µM. Besides, the IC50 in the data set on Leishmania infantum was determined as 3.5 µM; with Leishmania braziliensis, 9.4 µM. The selectivity ratio in data set [2] came out at 407; in data set [3], 151.

Consider `O=C(c1ccc(O)cn1)N1CCN(c2cnccn2)CC1`, for which, in data set [1], the CC50 at 72 h was more than 3500 µM. Moreover, the values for the IC50 with Leishmania infantum and with Leishmania braziliensis were 128 µM and 94 µM, respectively. The selectivity ratio was more than 27 in data set [2] and more than 37 in data set [3].

Consider `N[C@@H](Cc1ccc(O)cc1)C(=O)N1CCN(c2cnccn2)CC1`, for which the CC50 at 72 h in data set [1] amounted to 2410 µM. Also, the figures for the IC50 in the data set with Leishmania infantum and with Leishmania braziliensis were 3.3 µM and 69.2 µM, respectively. Moreover, the selectivity ratio in data set [3] is 35.

For the molecule `COc1ccc(C(=O)N2CCN(c3cnccn3)CC2)cn1`, the CC50 at 72 h in data set [1] came out at 1430 µM. In addition, the IC50 in the data set with Leishmania infantum came to 6.2 µM; in the data set with Leishmania braziliensis, 17.5 µM. The results for the selectivity ratio in data set [2] and in data set [3] were 231 and 82, respectively.

For `O=C(c1ccc2cc(O)ccc2c1)N1CCN(c2cnccn2)CC1`, the CC50 at 72 h in data set [1] amounted to 796 µM. For the same molecule, the IC50 in the data set on Leishmania infantum was determined as 3.3 µM; in the data set on Leishmania braziliensis it was 2.6 µM. Besides, the selectivity ratio came to 241 in data set [2] and 306 in data set [3].

Turning to `Oc1ccc(N2CCN(c3cnccn3)CC2)cc1`, the CC50 at 72 h in data set [1] is more than 3900 µM. For the same molecule, the IC50 in the data set on Leishmania infantum is 43.6 µM; in the data set on Leishmania braziliensis it was 27.1 µM. Moreover, the selectivity ratio in data set [2] is more than 89; in data set [3], more than 144.

On to `COc1cccc(C(=O)N2CCN(c3cnccn3)CC2)c1OC`, for which, in data set [1], the CC50 at 72 h worked out at 2000 µM. The figures for the IC50 with Leishmania infantum and in the data set with Leishmania braziliensis were 112 µM and 82.1 µM, respectively. Moreover, the selectivity ratio in data set [2] stood at 18; in data set [3] it was 24.

Take `O=C(c1ccc(NC2CCCC2)nc1)N1CCN(c2cnccn2)CC1`: the CC50 at 72 h in data set [1] was found to be 763 µM. Further, the IC50 with Leishmania infantum was 280 µM; in the data set with Leishmania braziliensis it was 337 µM. Besides, the selectivity ratio in data set [2] came to 3; in data set [3], 2.

For the molecule `O=C(c1cccc(O)c1O)N1CCN(c2cnccn2)CC1`, the cytotoxic concentration (CC50) at 72 h in data set [1] is more than 3330 µM. Also, the IC50 with Leishmania infantum is 2.8 µM; in the data set on Leishmania braziliensis it was 0.2 µM. Further, the selectivity ratio in data set [2] is more than 1190; in data set [3], more than 16600.

For `O=C(c1cc(Cl)ccc1O)N1CCN(c2cnccn2)CC1`, the CC50 at 72 h in data set [1] turned out to be 1600 µM. Also, the IC50 with Leishmania infantum turned out to be 10.8 µM; in the data set on Leishmania braziliensis, 4.5 µM. For the same molecule, the selectivity ratio in data set [2] was 149; in data set [3], 357.

Take `COc1ccc(C(=O)N2CCN(c3cnccn3)CC2)cc1OC`: the CC50 at 72 h in data set [1] turned out to be 721 µM. In addition, the IC50 in the data set with Leishmania infantum worked out at 55.3 µM; in the data set on Leishmania braziliensis it was 33.6 µM. Also, the selectivity ratio in data set [2] was determined as 13; in data set [3], 21.

Turning to `COc1ccc(S(=O)(=O)N2CCN(c3cnccn3)CC2)cc1`, the CC50 at 72 h in data set [1] is more than 2990 µM. The figures for the IC50 in the data set on Leishmania infantum and in the data set with Leishmania braziliensis were 122 µM and 94.1 µM, respectively. The selectivity ratio was more than 24 in data set [2] and more than 32 in data set [3].

As for `O=C(c1ccc(F)cc1O)N1CCN(c2cnccn2)CC1`, the half-maximal cytotoxic concentration (CC50) at 72 h in data set [1] stood at 1130 µM. The figures for the IC50 with Leishmania infantum and in the data set with Leishmania braziliensis were 14.2 µM and 25.8 µM, respectively. Besides, the selectivity ratio in data set [2] worked out at 80; in data set [3] it was 44.

For `O=C(c1ccc(O)cc1O)N1CCN(c2cnccn2)CC1`, the CC50 at 72 h in data set [1] amounted to 443 µM. The values for the IC50 in the data set on Leishmania infantum and with Leishmania braziliensis were 21.9 µM and 19.1 µM, respectively. Further, the figures for the selectivity ratio in data set [2] and in data set [3] were 20 and 23, respectively.

On to `Nc1ccc(C(=O)N2CCN(c3cnccn3)CC2)cn1`, for which the CC50 at 72 h in data set [1] came out at 2670 µM. Also, the IC50 with Leishmania infantum was found to be 5.1 µM; with Leishmania braziliensis it was 11.9 µM. Also, the selectivity ratio came to 524 in data set [2] and 224 in data set [3].

For `O=C(c1ccccn1)N1CCN(c2cnccn2)CC1`, the CC50 at 72 h in data set [1] worked out at 1130 µM. Further, the IC50 with Leishmania infantum worked out at 64.8 µM; in the data set with Leishmania braziliensis it was 34.9 µM. For the same molecule, the values for the selectivity ratio in data set [2] and in data set [3] were 18 and 32, respectively.

`CC(C)(C)OC(=O)N[C@@H](Cc1ccc(O)cc1)C(=O)N1CCN(c2cnccn2)CC1`: the CC50 at 72 h in data set [1] is 1010 µM. Besides, the IC50 was 2.9 µM with Leishmania infantum and 9.4 µM with Leishmania braziliensis. Moreover, the selectivity ratio was 349 in data set [2] and 108 in data set [3].

`O=C(/C=C/c1ccc(O)c(O)c1)N1CCN(c2cnccn2)CC1`: the CC50 at 72 h in data set [1] was more than 3060 µM. Moreover, the results for the IC50 in the data set on Leishmania infantum and in the data set with Leishmania braziliensis were 105 µM and 74.6 µM, respectively. Besides, the selectivity ratio in data set [2] is more than 29; in data set [3] it was more than 41.

Take `O=S(=O)(c1ccc(O)cc1)N1CCN(c2cnccn2)CC1`: the CC50 at 72 h in data set [1] was 2510 µM. For the same molecule, the IC50 was 157 µM in the data set with Leishmania infantum and 113 µM in the data set with Leishmania braziliensis. Further, the selectivity ratio came to 16 in data set [2] and 22 in data set [3].

Regarding `O=C(c1ccc(O)nc1)N1CCN(c2cnccn2)CC1`, in data set [1], the CC50 at 72 h was more than 3500 µM. In addition, the IC50 in the data set with Leishmania infantum was 176 µM; in the data set with Leishmania braziliensis it was 184 µM. Also, the values for the selectivity ratio in data set [2] and in data set [3] were 1460 and more than 19, respectively.

Turning to `O=C(c1cccnc1)N1CCN(c2cnccn2)CC1`, the CC50 at 72 h in data set [1] is more than 3710 µM. For the same molecule, the IC50 with Leishmania infantum was 142 µM; in the data set with Leishmania braziliensis it was 132 µM. The selectivity ratio was more than 26 in data set [2] and more than 28 in data set [3].

Take `COc1ccc(C(=O)N2CCN(c3cnccn3)CC2)c(OC)c1`: the half-maximal cytotoxic concentration (CC50) at 72 h in data set [1] was 482 µM. For the same molecule, the figures for the IC50 with Leishmania infantum and with Leishmania braziliensis were 26.4 µM and 30.6 µM, respectively. Besides, the selectivity ratio in data set [2] turned out to be 18; in data set [3], 16.

With `O=C(c1ccc(Cl)nc1)N1CCN(c2cnccn2)CC1`, in data set [1], the CC50 at 72 h amounted to 349 µM. Also, the IC50 came to 1.9 µM with Leishmania infantum and 10.1 µM in the data set with Leishmania braziliensis. Besides, the figures for the selectivity ratio in data set [2] and in data set [3] were 184 and 35, respectively.

In the case of `N#Cc1ccc(C(=O)N2CCN(c3cnccn3)CC2)cc1`, the CC50 at 72 h in data set [1] came to 1290 µM. The values for the IC50 in the data set with Leishmania infantum and in the data set with Leishmania braziliensis were 15.9 µM and 22.7 µM, respectively. Also, the selectivity ratio was found to be 81 in data set [2] and 57 in data set [3].

As for `O=C(N1CCN(c2cnccn2)CC1)n1ccnc1`, the CC50 at 72 h in data set [1] came to 3190 µM. In addition, the IC50 turned out to be 7.3 µM in the data set on Leishmania infantum and 9.2 µM in the data set on Leishmania braziliensis. Moreover, the selectivity ratio in data set [2] turned out to be 438; in data set [3], 347.
